“Also recorded” adds a separate entry of the source.
How the values were obtained:
[1] = Pharmacokinetic summary across mouse, rat and dog; format: in vivo
Description: Particularly for chronic conditions, oral administration is preferred. Typical dosages for oral administration would be approximately 5-500 mg/kg per day.
For some embodiments, delivery of compound K by injection, such as intramuscular or intravenous, may be preferred. […] The dosage for injected delivery (IV) can be about half of the oral dosage since injection bypasses the absorption barriers that reduce oral bioavailability. For delivery by injection, lower doses such as 1-25 mg/kg per day may be used to achieve similar plasma levels of drug.

HIV-1 = assay: U1 latent infection assay, antiviral (reverse transcriptase); format: cell-based; settings: U1 latent infection assay
Description: Histocytic leukemia cell line U937, latently infected with HIV-1, are treated with TNFα to induce virus expression in the presence of test compound. Antiviral activity is determined as a reduction in reverse transcriptase after 72 hr incubation.
TI=TC/IC; also referred to as Therapeutic Index values (TI) or Antiviral Index (AI)
The histocytic leukemia cell line U937, latently infected with HIV-1, was treated with TNFα to induce virus expression in the presence of test compound. Antiviral activity was determined as a reduction in reverse transcriptase after 72 hr incubation. Temacrazine, an inhibitor of HIV transcription initiation, was used as the positive control for the assay.

DYRK2 = biological target: T1, DYRK2 (Homo sapiens, UniProt Q92630); assay: Kinase panel IC-50, DYRK2; format: biochemical
T1 sequence (Q92630 1-601): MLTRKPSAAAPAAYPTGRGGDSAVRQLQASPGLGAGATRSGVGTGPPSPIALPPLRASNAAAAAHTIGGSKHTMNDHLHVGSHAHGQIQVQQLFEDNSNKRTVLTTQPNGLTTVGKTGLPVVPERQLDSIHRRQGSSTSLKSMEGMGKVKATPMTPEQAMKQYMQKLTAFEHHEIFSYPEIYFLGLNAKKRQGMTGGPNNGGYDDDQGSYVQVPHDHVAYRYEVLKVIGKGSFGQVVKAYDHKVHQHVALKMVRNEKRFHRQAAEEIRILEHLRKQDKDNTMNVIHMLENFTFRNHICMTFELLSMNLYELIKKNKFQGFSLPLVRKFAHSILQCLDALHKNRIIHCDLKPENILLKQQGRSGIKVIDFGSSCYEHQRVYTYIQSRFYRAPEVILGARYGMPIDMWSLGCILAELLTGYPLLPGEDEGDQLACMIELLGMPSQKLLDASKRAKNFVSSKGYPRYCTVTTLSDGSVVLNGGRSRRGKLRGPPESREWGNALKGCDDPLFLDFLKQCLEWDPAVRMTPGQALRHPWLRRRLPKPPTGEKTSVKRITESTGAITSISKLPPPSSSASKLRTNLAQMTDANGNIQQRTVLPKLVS

[2] = tested on: formalin-induced persistent pain; assay: Formalin-induced persistent pain model (flinching); format: in vivo, ICR mice
Description: See Hunskaar, et al., “The formalin test in mice: Dissociation between inflammatory and non-inflammatory pain,” Pain, vol. […] 89, 53-63 (2000). These tests were conducted with ICR mice, in accordance with guidelines established by the International Association for the Study of Pain. Compounds of the invention were used as solutions of about 3-20 mg/mL in aqueous solution at about pH 8. […] The test animals were monitored for at least 40 minutes, during which time the number of flinches occurring during each 5-minute period were observed and recorded. A cohort of 12 animals were used for each dose level of each compound tested.
The compounds were administered orally in a single dose, of 30, 100, and 200 mg/kg, one hour prior to injection of formalin Pain response was measured by flinching frequency.

[3] = Phase I clinical study, safety and pharmacokinetics; format: in vivo, human
Description: Oral doses are administered twice daily for twenty-one consecutive days of a four week cycle. […] Response by RECIST is determined after every 2 cycles. Serial blood and plasma samples are collected on the first and final dosing days of Cycle 1 (i.e., Day 1 and Day 21) for pharmacokinetic analysis and for pharmacodynamic biomarker evaluations (specifically, total and phosphorylated forms of p21 and Akt).
Patients in Cohorts 1-3 were dosed twice daily (BID) with oral capsules.

[4] = Pharmacokinetics in mouse (IV bolus or oral dose); format: in vivo; settings: Mouse; for Cmax: read-out: Cmax
Description: (§1) The pharmacokinetics properties of drugs were investigated in three species, following an intravenous (IV) bolus or oral (PO) dose of Compound K at the dosages indicated in the chart. Blood samples were collected at predetermined times and the plasma separated. Plasma was separated from the blood samples collected at 5, 15 and 30 minutes and 1, 2, 4, 8 and 24 hours post-dose.
Drug levels were quantified by the LC/MS/MS method described below. Noncompartmental pharmacokinetic analysis was applied for intravenous administration. […] The terminal t1/2 and C0 were calculated using the last three and the first three data points, respectively
(§2) Bioanalysis was performed using a Quattro Micro LC/MS/MS instrument in the MRM detection mode, with an internal standard (1S). Briefly, 15 μL plasma samples were prepared for analysis using protein precipitation with 120 μL of acetonitrile. The supernatants were transferred into a 96 well plate and subjected to LC-MS/MS analysis using a Phenomenex Polar-RP HPLC column. The mobile phases were 10 mM NH4HCO3 in water (Solution-A) and 10 mM NH4HCO3 in methanol (Solution-B). The column was initially equilibrated with 25% Solution-B and followed with 100% Solution B over 5 minutes. […] Quantitation of the analytes was performed in the batch mode with two bracketing calibration curves according to the bioanalytical sample list.

[5] = Pharmacokinetics in rat (IV bolus or oral dose); format: in vivo
Description: as §1
Drug levels were quantified by the LC/MS/MS method described below. Noncompartmental pharmacokinetic analysis was applied for intravenous administration. A linear trapezoidal rule was used to compute AUC(0-24). The terminal t1/2 and C0 were calculated using the last three and the first three data points, respectively
as §2

[6] = thirteen patients with solid tumors, oral BID

## O=C(O)c1ccc2c(c1)nc(Nc1cccc(Cl)c1)c1ccncc12 [Compound K, 5-(3-chlorophenylamino)benzo[c][2,6]naphthyridine-8-carboxylic acid]
[1]; plasma, po, rat and dog, administered orally
  bioavailability: 20 to 50%
[1]; plasma, rat and dog, oral
  half-life: 5 to 12 h
[1]; rat and dog
  clearance rate in vivo: relatively low clearance rate
[1]; rat, dog, plasma, other: injected (such as intramuscular or intravenous), when injected
  half-life: 5 to 12 h
HIV-1
  inhibition of virus production: no significant inhibition of virus production
DYRK2
  IC50: 91 nM
[2]; 10-40 minute phase post-injection, single oral dose 30, 100, 200 mg/kg
  formalin-induced flinching, Phase II: significantly reduced formalin-induced flinching; also recorded: statistically significant effects were seen in two of the three test groups
[2]; 10-40 minute phase, 30 mg/kg oral
  formalin-induced flinching, Phase II: effective
[2]; 10-40 minute phase, 200 mg/kg oral
  formalin-induced flinching, Phase II: effective
[2]; first 9 minute phase post-injection, single oral dose 30, 100, 200 mg/kg one hour prior to formalin
  formalin-induced flinching, Phase I: neither compound affected rates of flinching; also recorded: not statistically significant
[3]; Phase I patients
  dose-limiting toxicities (DLTs): No dose-limiting toxicities (DLTs) have yet been observed
  drug related toxicity: no drug related toxicity
[3]; after first dose on day 1 and day 21, Cohorts 1-3 (90, 160, 300 mg BID)
  plasma exposures: Dose related plasma exposures were observed
[3]; day 1 vs day 21
  accumulation: No accumulation was observed
[3]; human, in vivo, at steady state, patients, oral BID, read-out: terminal half life (converted)
  half-life: ~25 h
[3]; [6]
  drug-related significant adverse events of grade 3 or higher: no drug-related significant adverse events of grade 3 or higher reported
  tolerability of oral doses: well tolerated
[4]; 5 mg/kg IV
  CLs: 41.7 mL/min/kg
  Terminal T1/2: 5.0 h
[4]; 25 mg/kg PO
  % F0-inf: 20.1%
[4]; in vivo, 5 mg/kg IV, 25 mM sodium phosphate buffer
  AUC(0-inf): 2000 ng·h/mL
[4]; in vivo, 5 mg/kg IV
  Cmax: 6700 ng/mL
[4]; in vivo, 5 mg/kg IV, read-out: Vdss
  Vd: 18.1 L/kg
[4]; in vivo, 25 mg/kg PO, 25 mM phosphate buffer
  AUC(0-inf): 2010 ng·h/mL
[4]; in vivo, 25 mg/kg PO
  Cmax: 311 ng/mL
[4]; in vivo, 25 mg/kg PO, read-out: Terminal T1/2 (converted)
  half-life: 7.1 h
[5]; 5.2 mg/kg IV
  CLs: 1.7 mL/min/kg
  Terminal T1/2: 11.6 h
[5]; 10.5 mg/kg PO
  % F0-inf: 47.8%
[5]; plasma, 5.2 mg/kg IV
  Cmax: 38700 ng/mL
[5]; plasma, 5.2 mg/kg IV, 25 mM sodium phosphate buffer
  AUC(0-inf): 44300 ng·h/mL
[5]; plasma, 5.2 mg/kg IV, read-out: Vdss
  Vd: 2 L/kg
[5]; plasma, 10.5 mg/kg PO
  Cmax: 7370 ng/mL
[5]; plasma, 10.5 mg/kg PO, 25 mM phosphate buffer
  AUC(0-inf): 42300 ng·h/mL
[5]; plasma, 10.5 mg/kg PO, read-out: Terminal T1/2 (converted)
  half-life: 12.3 h
